US20190352276A1, “INHIBITORS OF BRUTON'S TYROSINE KINASE” (Joint Stock Company "Biocad", priority 2016, published 2019)

Tests used:
[1] = Permeability through the monolayer of Caco-2 cells; format: in vitro ADME; details: human; for Papp A→B at 2 h, 10 μM / Papp B→A at 2 h, 10 μM: 2 h at 37° C.; for efflux ratio at 2 h, 10 μM: read-out: efflux (Papp B-A/Papp A-B)
How it was run: (§1)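 Bidirectional transport measured over 7200 s with 10 μM compound, using an apical buffer at pH 6.5 and a basolateral Hanks/HEPES/glucose buffer at pH 7.4 containing 1% BSA. Monolayers were 21-day Caco-2 cultures verified with Lucifer Yellow. Chamber concentrations quantified chromatographically to derive Papp in both directions and their B-A/A-B efflux ratio.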

Caco-2 cells = test: Permeability through the monolayer of Caco-2 cells; format: in vitro ADME
How it was run: as §1

[2] = Stability in human blood plasma; details: 10 μM in pooled human blood plasma, incubated 4 hours at 37° C.
Procedure: To assess the blood plasma stability of the drug candidates, we used pooled human blood plasma taken from ten healthy donors. The initial solution (10 Mm in DMSO) was diluted with pooled blood plasma to 10 μM (test solution). The test solution had been incubated for 4 hours in a dry block heater at 37° C. We determined peak areas of the compounds corresponding to the start of the test (before incubating) and the end of the test (after incubating in a dry block heater at 37° C.) by HPLC using Agilent1200 chromatograph (Agilent, USA) with preliminary protein precipitation with acetonitrile. We used gradient elution (1 mL/min flow rate). We determined amount of substance in the sample in % after incubation.
We evaluated the stability of the compounds.

[3] = Chemical stability in artificial gastric fluid (SGF without enzymes); details: 10 μM in SGF without enzymes, pH=1.4, 37° C.

Papp A→B at 2 h, 10 μM [1] [×10⁻⁶ cm/s] | Papp B→A at 2 h, 10 μM [1] [×10⁻⁶ cm/s] | efflux ratio at 2 h, 10 μM [1] | efflux (Papp B-A/Papp A-B) (Caco-2 cells) | Amount of substance in the sample, % (stability in human blood plasma) [2] [%] | Amount of substance in the sample in % (chemical stability) [3] [%] | Structure (SMILES)
21 | 13.2 | 0.6 | – | – | – | C=CC(=O)N1CCC[C@@H](n2nc(-c3ccc(Oc4ccncc4)cc3)c3cncc(Cl)c32)C1 [BCD-BTK-125, (R)-1-(1-acryloylpiperidin-3-yl)-7-chloro-3-(4-(pyridin-4-yloxy)phenyl)-1H-pyrazolo[4,3-c]pyridine]
52.2 | 5.7 | 0.1 | – | – | – | C=CC(=O)N1CCC[C@@H](n2nc(-c3ccc(Oc4ccncc4)cc3)c3c(N)ncc(Cl)c32)C1 [BCD-BTK-139, (R)-1-(1-acryloylpiperidin-3-yl)-7-chloro-3-(4-(pyridin-4-yloxy)phenyl)-1H-pyrazolo[4,3-c]pyridin-4-amine]
20.3 | 1.91 | – | 0.09 | – | – | C=CC(=O)N1CCC[C@@H](n2nc(-c3ccc(Oc4ccncc4C#N)cc3)c3cncc(Cl)c32)C1 [BCD-BTK-202, (R)-4-(4-(1-(1-acryloylpiperidin-3-yl)-7-chloro-1H-pyrazolo[4,3-c]pyridin-3-yl)phenoxy)nicotinonitrile]
– | – | – | – | 90.2 | 100 | C=CC(=O)N1CCC[C@@H](n2nc(-c3ccc(Oc4cccnc4C(N)=O)cc3)c3cncc(Cl)c32)C1 [BCD-BTK-220, 3-(4-{7-chloro-1-[(3R)-1-(prop-2-enoyl)piperidin-3-yl]-1H-pyrazolo[4,3-c]pyridin-3-yl}phenoxy)pyridine-2-carboxamide]
26.5 | 2.68 | 0.1 | – | 93.3 | 99.9 | C=CC(=O)N1CCC[C@@H](n2nc(-c3ccc(Oc4cccnc4C#N)cc3)c3cncc(F)c32)C1 [BCD-BTK-230, (R)-3-(4-(1-(1-acryloylpiperidin-3-yl)-7-fluoro-1H-pyrazolo[4,3-c]pyridin-3-yl)phenoxy)picolinonitrile]
– | – | – | – | 80.3 | 100 | C=CC(=O)N1CCC[C@@H](n2nc(-c3ccc(Oc4ccncc4)cc3)c3c(N)ncc(OC)c32)C1 [BCD-BTK-239, (R)-1-(1-acryloylpiperidin-3-yl)-4-amine-7-methoxy-3-(4-(pyridin-4-yloxy)phenyl)-1H-pyrazolo[4,3-c]pyridine]
8.3 | 1.5 | 0.2 | – | – | – | C=CC(=O)N1CCC[C@@H](n2nc(-c3ccc(C(=O)Nc4cc(C(F)(F)F)ccn4)cc3)c3c(N)ncc(Cl)c32)C1 [BCD-BTK-251, (R)-4-(1-(1-acryloylpiperidin-3-yl)-4-amino-7-chloro-1H-pyrazolo[4,3-c]pyridin-3-yl)-N-(4-(trifluoromethyl)pyridin-2-yl)benzamide]

Further lines, the compound ahead of its results:

Structure (SMILES) | Papp A→B at 2 h, 10 μM [1] [×10⁻⁶ cm/s] | Papp B→A at 2 h, 10 μM [1] [×10⁻⁶ cm/s] | efflux ratio at 2 h, 10 μM [1] | efflux (Papp B-A/Papp A-B) (Caco-2 cells) | Amount of substance in the sample, % (stability in human blood plasma) [2] [%] | Amount of substance in the sample in % (chemical stability) [3] [%]
C=CC(=O)N1CCC[C@@H](n2nc(-c3ccc(C(=O)Nc4ccccn4)cc3)c3c(N)ncc(C#N)c32)C1 [BCD-BTK-234, (R)-4-(1-(1-acryloylpiperidin-3-yl)-4-amino-7-cyano-1H-pyrazolo[4,3-c]pyridin-3-yl)-N-(pyridine-2-yl)benzamide] | 8.2 | 9.2 | 1.1 | – | 83.5 | 100
C=CC(=O)N1CCC[C@@H](n2nc(-c3ccc(C(=O)Nc4ccccn4)cc3)c3c(N)ncc(OC)c32)C1 [BCD-BTK-240, (R)-4-(1-(1-acryloylpiperidin-3-yl)-4-amino-7-methoxy-1H-pyrazolo[4,3-c]pyridin-3-yl)-N-(pyridin-2-yl)benzamide] | 18.2 | 11.1 | 0.61 | – | 100.0 | 100
C=CC(=O)N1CCC[C@@H](n2nc(-c3ccc(C(=O)Nc4ccccn4)cc3)c3c(N)nccc32)C1 [BCD-BTK-242, (R)-4-(1-(1-acryloylpiperidin-3-yl)-4-amino-1H-pyrazolo[4,3-c]pyridin-3-yl)-N-(pyridin-2-yl)benzamide] | – | – | – | – | 100.0 | 100
C=CC(=O)N1CCC[C@@H](n2nc(-c3ccc(C(=O)Nc4ncccc4F)cc3)c3c(N)ncc(C#N)c32)C1 [BCD-BTK-258, 4-{4-amino-7-cyano-1-[(3R)-1-(prop-2-enoyl)piperidin-3-yl]-1H-pyrazolo[4,3-c]pyridin-3-yl}-N-(3-fluoropyridin-2-yl)benzamide] | – | – | – | – | – | 100
C=CC(=O)N1CCC[C@@H](n2nc(-c3cnc(C(=O)Nc4cc(C(F)(F)CCC)ccn4)nc3)c3cncc(Cl)c32)C1 [BCD-BTK-292, (R)-5-(1-(1-acryloylpiperidin-3-yl)-7-chloro-1H-pyrazolo[4,3-c]pyridin-3-yl)-N-(4-(1,1-difluorobutyl)pyridin-2-yl)pyrimidine-2-carboxamide] | 11.6 | 0.07 | – | 0.006 | – | –
